The source made the active and inactive calls.
Key:
cells [1] = type: functional, cell-based
cells [2] = type: functional, cell-based; remark: listed apart in the source
[3] = biological target: T1, RNA-binding protein pos-1 (Caenorhabditis elegans, UniProt G5EF15); experiment: disruptors of C. elegans POS-1 RNA interaction – biochemical, fluorescence polarization, dose response (AID 1964);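 note: purified POS-1 fused to maltose binding protein made in E. coli; potency of compounds blocking POS-1 binding to fluorescent RNA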
T1 sequence (G5EF15 whole entry): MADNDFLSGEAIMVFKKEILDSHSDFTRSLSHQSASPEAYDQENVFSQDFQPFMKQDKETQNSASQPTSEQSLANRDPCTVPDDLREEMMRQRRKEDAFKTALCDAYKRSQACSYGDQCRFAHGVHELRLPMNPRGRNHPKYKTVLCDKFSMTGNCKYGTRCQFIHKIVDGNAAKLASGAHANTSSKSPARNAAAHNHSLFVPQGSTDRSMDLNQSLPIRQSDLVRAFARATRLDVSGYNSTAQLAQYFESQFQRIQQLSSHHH

[4] = biological target: T2, Zinc finger protein mex-5 (Caenorhabditis elegans, UniProt Q9XUB2); experiment: potency of MEX-5 RNA-binding blockers – biochemical, C. elegans, fluorescence polarization, dose response (AID 1960)
T2 sequence (Q9XUB2 whole entry): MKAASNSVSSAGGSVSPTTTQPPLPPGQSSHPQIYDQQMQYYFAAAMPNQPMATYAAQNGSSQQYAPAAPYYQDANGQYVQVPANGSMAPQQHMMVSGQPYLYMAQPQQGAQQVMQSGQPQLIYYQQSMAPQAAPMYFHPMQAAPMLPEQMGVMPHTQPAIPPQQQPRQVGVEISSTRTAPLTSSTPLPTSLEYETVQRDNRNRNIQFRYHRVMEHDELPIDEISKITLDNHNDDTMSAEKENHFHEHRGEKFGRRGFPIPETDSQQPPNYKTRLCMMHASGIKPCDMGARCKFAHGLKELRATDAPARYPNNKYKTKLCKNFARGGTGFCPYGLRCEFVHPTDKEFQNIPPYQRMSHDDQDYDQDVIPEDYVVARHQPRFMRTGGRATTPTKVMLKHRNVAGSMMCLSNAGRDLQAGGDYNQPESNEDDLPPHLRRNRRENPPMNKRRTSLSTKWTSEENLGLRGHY

Streptokinase A = biological target: T3, Streptokinase A (Streptococcus pyogenes serotype M1, UniProt P10520); experiment: viability-normalized secreted streptokinase activity reduction – plasminogen activation absorbance, OD405, dose response (AID 1914); type: functional, Streptococcus pyogenes M1 GAS;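 note: secreted streptokinase activity via plasminogen activation per viability signal from cell pellet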
T3 sequence (P10520 whole entry): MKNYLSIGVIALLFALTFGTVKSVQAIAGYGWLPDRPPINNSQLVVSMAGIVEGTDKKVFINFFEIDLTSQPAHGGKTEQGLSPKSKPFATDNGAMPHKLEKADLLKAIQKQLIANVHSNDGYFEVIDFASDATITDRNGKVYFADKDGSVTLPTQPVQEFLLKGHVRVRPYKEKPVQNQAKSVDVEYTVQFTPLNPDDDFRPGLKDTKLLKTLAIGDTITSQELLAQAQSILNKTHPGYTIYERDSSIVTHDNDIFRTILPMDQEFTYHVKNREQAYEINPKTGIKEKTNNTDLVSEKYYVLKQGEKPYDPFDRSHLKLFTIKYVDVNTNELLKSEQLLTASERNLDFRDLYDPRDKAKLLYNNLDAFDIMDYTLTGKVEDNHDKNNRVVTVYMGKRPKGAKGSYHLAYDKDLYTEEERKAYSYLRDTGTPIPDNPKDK

Streptococcus = experiment: GAS UMAA2166 growth inhibition – luminescence, BacTiterGlo, counter-screen for streptokinase expression inhibitor project, dose response (AID 1915); type: functional, organism-based;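 note: potency for reduction of bacterial viability or growth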
[5] = biological target: T4, Endoribonuclease toxin MazF (Escherichia coli K-12, UniProt P0AE70); experiment: activation of MazEF endoribonuclease cleavage – biochemical, fluorescence, single-stranded RNA substrate, uHTS hits, dose response (AID 588481); type: functional
T4 sequence (P0AE70 whole entry): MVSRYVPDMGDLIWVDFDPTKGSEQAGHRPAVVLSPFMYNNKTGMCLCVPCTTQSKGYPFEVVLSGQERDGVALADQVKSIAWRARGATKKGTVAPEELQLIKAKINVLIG

[6] = biological target: T4, Endoribonuclease toxin MazF; experiment: substrate-only fluorescence increase artefacts – biochemical, single-stranded RNase substrate, counter-screen for MazEF activator project, dose response (AID 588502); type: functional
Beta-galactosidase = Beta-galactosidase (Escherichia coli, UniProt Q8VNN2); experiment: Dose response counterscreen for EBI2 assay utilizing the enzyme, b-galactosidase.; type: functional
Sequence of Beta-galactosidase (Q8VNN2 whole entry): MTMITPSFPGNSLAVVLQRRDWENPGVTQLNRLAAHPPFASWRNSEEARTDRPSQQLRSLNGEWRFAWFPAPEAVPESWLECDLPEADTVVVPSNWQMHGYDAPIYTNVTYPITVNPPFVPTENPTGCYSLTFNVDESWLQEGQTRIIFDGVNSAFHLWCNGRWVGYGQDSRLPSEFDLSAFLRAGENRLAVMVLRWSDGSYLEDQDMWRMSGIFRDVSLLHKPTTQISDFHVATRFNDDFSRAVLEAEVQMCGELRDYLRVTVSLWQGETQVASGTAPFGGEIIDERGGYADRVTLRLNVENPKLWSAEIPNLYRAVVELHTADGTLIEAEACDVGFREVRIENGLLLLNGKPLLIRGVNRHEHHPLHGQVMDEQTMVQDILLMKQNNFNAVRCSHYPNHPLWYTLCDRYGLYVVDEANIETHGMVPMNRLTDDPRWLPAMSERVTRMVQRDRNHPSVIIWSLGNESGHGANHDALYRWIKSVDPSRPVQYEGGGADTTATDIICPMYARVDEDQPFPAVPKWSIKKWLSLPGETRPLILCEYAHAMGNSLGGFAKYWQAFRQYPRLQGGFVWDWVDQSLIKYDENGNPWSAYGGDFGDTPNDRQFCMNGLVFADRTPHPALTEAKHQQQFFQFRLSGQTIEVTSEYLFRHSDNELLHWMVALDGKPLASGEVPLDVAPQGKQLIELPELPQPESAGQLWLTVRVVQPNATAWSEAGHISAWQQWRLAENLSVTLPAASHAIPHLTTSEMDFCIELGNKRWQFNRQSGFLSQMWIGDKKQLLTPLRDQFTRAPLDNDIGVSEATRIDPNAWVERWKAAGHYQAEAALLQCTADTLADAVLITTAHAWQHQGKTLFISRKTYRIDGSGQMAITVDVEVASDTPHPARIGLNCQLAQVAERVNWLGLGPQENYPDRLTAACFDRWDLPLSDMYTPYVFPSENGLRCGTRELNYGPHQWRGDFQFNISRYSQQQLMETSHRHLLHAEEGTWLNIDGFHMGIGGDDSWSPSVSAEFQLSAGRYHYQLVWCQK

[7] = Luminescence Cell-Based Dose Response HTS to Identify Inhibitors of 5'UTR Stem-Loop Driven Prion Protein mRNA Translation in H4 Neuroglioblastoma Cells. [Related pubchem assays: 1827 (Project Summary), 1813 (Primary HTS)]; type: functional
[8] = alpha-synuclein stem-loop luciferase translation blockers – H4 neuroglioma cells, luminescence, confirmation (AID 1988); type: functional, cell-based
cells [9] = type: functional, cell-based; remark: listed apart in the source
[10] = biological target: Nuclear receptor subfamily 0 group B member 1 (Homo sapiens, UniProt P51843); type: functional, cell-based;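 note: HEK293T cells transfected with SF-1 and DAX-1 plus StAR promoter luciferase reporter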
Sequence of Nuclear receptor subfamily 0 group B member 1 (P51843 whole entry): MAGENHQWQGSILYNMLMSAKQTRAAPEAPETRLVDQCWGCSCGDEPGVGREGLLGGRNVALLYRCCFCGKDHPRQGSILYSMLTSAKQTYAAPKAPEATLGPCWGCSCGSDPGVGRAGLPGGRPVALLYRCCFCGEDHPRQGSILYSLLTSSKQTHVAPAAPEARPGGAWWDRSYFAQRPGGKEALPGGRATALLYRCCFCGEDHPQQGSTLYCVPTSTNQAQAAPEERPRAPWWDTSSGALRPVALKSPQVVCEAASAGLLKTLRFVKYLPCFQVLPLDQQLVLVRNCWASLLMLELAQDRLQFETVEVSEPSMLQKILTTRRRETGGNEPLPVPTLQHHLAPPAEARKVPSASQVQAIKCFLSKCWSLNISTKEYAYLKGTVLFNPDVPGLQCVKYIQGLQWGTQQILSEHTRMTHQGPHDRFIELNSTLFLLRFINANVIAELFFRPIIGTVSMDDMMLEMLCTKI

[11] = biological target: T5, Mannose-6-phosphate isomerase (Homo sapiens, UniProt P34949); experiment: MPI enzyme activity inhibition – biochemical, fluorescence intensity, coupled assay, primary screen (AID 1209)
T5 sequence (P34949 whole entry): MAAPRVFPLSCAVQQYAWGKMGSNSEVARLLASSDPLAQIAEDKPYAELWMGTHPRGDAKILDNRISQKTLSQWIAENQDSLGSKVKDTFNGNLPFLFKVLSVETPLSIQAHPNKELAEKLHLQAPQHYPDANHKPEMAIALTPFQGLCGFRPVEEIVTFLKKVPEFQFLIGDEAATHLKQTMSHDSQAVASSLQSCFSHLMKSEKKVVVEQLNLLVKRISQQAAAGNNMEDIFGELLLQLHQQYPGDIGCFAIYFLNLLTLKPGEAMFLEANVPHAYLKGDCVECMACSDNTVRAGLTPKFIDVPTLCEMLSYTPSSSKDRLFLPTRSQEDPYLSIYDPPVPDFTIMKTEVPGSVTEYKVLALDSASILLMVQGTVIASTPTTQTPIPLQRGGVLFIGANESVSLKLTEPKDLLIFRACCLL

[12] = inhibitors of non-replicating M. tuberculosis, dose response, luciferase, dry powder (AID 651619); type: functional; conditions: Mycobacterium tuberculosis
[13] = inhibitors of non-replicating M. tuberculosis, dose response, luciferase, dry powder (AID 651620); type: functional; conditions: Mycobacterium tuberculosis
[14] = biological target: Heat shock protein HSP 90-alpha (Homo sapiens, UniProt P07900); experiment: Luminescence-based dose response biochemical high throughput screening assay for inhibitors of the Heat Shock Protein 90 (HSP90). [Related pubchem assays: 1831 (Summary AID.), 1846 (Confirmation screen.), 1789 (Primary screen.)]
Estrogen receptor = biological target: T6, Estrogen receptor (Homo sapiens, UniProt P03372);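 note: potency for inhibiting coactivator peptide recruitment to the receptor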
T6 sequence (P03372 whole entry): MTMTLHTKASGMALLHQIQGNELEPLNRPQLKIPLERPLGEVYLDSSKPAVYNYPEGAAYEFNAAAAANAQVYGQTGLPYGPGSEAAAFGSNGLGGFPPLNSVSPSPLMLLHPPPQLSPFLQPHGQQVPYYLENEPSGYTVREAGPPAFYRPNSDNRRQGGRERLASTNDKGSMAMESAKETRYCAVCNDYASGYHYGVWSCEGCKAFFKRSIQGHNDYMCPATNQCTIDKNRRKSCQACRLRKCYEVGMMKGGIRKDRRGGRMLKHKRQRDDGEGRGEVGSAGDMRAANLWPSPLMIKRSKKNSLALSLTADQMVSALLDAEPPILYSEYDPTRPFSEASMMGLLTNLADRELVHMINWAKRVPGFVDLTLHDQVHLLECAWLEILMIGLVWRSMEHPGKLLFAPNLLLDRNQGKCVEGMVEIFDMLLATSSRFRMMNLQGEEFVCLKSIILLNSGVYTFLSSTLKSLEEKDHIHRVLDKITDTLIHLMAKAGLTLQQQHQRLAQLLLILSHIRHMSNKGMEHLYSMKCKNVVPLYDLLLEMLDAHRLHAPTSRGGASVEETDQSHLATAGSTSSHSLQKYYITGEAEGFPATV

Estrogen receptor beta [15] = biological target: T7, Estrogen receptor beta (Homo sapiens, UniProt Q92731);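 note: recombinant ER-beta bound to coactivator SRC1 peptide in presence of estradiol agonist; inhibitors block coactivator peptide binding and lower the FRET signal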
T7 sequence (Q92731 whole entry): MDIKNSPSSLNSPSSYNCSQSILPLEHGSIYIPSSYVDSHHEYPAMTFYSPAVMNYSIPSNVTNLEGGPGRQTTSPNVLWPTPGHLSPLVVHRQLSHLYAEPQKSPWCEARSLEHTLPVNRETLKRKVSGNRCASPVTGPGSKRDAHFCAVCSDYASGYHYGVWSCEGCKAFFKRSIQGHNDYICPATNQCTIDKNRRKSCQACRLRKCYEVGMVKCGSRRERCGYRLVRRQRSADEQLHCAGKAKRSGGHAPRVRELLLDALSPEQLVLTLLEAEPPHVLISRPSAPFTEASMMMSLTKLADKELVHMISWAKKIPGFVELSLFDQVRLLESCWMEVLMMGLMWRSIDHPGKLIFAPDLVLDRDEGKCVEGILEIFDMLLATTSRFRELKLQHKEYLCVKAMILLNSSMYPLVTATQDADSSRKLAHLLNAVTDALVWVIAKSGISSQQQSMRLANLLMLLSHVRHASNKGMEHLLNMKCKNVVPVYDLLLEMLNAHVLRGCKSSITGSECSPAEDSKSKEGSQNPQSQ

Estrogen receptor beta [16] = biological target: T7, Estrogen receptor beta; experiment: blockers of SRC-3 recruitment to ERβ – biochemical, ELISA, streptavidin-HRP readout, orthogonal assay, confirmation (AID 1060)
[17] = biological target: Fructose-bisphosphate aldolase (Mycobacterium tuberculosis, UniProt P9WQA3); experiment: Fluorescence-based biochemical high throughput dose response assay for inhibitors of the fructose-bisphosphate aldolase (FBA) of M. tuberculosis.; type: functional
Sequence of Fructose-bisphosphate aldolase (P9WQA3 whole entry): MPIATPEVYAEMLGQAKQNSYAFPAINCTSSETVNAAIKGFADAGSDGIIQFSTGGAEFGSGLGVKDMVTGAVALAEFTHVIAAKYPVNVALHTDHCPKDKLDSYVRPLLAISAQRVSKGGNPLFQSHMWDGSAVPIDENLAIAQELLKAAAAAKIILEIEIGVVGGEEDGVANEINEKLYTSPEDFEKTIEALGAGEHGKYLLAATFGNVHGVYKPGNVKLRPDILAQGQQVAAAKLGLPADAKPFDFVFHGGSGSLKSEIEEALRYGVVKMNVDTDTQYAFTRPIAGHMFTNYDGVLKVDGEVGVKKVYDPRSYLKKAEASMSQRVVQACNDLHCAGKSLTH

Oc1ccnc(NCCc2ccccc2)n1
IC50 (cells [1]): > 29.9 µM (inactive) | EC50 (cells [2]): > 29.9 µM (inactive)

COC(=O)/C=C1\C(=O)N(c2nc3ccccc3s2)C(=S)N1c1ccc(F)cc1
EC50 [3]: > 300 µM (not active) | EC50 [4]: > 300 µM (not active) | EC50 (Streptokinase A): > 150 µM (not active) | EC50 (Streptococcus): > 150 µM (not active) | EC50 [5]: > 99 µM (inactive) | EC50 [6]: > 99 µM (inactive) | IC50 (Beta-galactosidase): > 80 µM (inactive)

Cc1ccc(-c2cc(C(=O)N3CCCC3)no2)cc1
EC50 [7]: 2.79 µM (active) | EC50 [8]: 9.94 µM (inconclusive) | IC50 (cells [9]): > 67.5 µM (inactive) | IC50 [10]: > 67.5 µM (inactive)

COc1ccccc1N1C(=O)CC(Sc2n[nH]c(-c3cccc(C)c3)n2)C1=O (stereo not drawn)
IC50 [11]: 48.1 µM (active)

CCOC(=O)c1c(S(=O)(=O)Nc2ccc(CN3CCC(C)CC3)cc2)c(C)n(C)c1C
IC50 (cells [9]): > 67.5 µM (inactive) | IC50 [10]: > 67.5 µM (inactive)

Fc1ccc(CSc2nnc(-c3cccnc3)o2)cc1
IC90 [12]: 1 µM (active) | IC90 [13]: 1 µM (active)

Nc1c(-c2ccccc2)cnn1-c1ccc(C(=O)O)cc1
IC50 [14]: 5.93 µM (active)

CCOc1ccc(NC2=NC(=O)S/C2=C\c2ccc(OC)cc2)cc1
IC50 (Estrogen receptor): 18.8 µM (active) | IC50 (Estrogen receptor beta [15]): > 50 µM (not active) | IC50 (Estrogen receptor beta [16]): 99.9 µM (not active)

Cc1nc2c(cc1N)nc(C)n2Cc1ccccc1
IC50 [17]: 0.653 µM (active)

Reference: ChEMBL document CHEMBL1201862, “PubChem BioAssay data set” (2004)
